# Source: patent US9227968B2, “Method of treatment or prophylaxis of inflammatory pain” (Novartis AG, priority 2006, dated 2016)
# “Also recorded” adds a separate entry of the source.
# Key:
# [1] = system: monoarthritic rats; assay: Paw pressure test (vocalization threshold) in monoarthritic rats (intraarticular FCA); assay type: in vivo, rat; settings: for antihyperalgesic effect in model of monoarthritis (overall): i.p. 0.1, 1 and 10 mg/kg
# Method: Experimentation was done blindly using the block method with randomization. Unilateral monoarthritits was induced by an intraarticular injection of FCA (0.05 ml) into the tibio tarsial cavity of the right hindpaw of the rat under volatile anaesthetic (5% isofluorane). Fourteen days later, drugs were intraperitoneally given as a single administration. Pain reaction thresholds (vocalization or struggle) were measured using the paw pressure test before induction of monoarthritis, just before drug injections and 15 min, 30 min, 45 min, 1 h, 1 h 30, 2 h and 3 h after drug injections. Pressure was gradually applied to the injected hindpaw of the rat (tibio tarsial articulation) and pain reaction thresholds were determined as the pressure (g) required to elicit struggle or vocalization.
# Results were expressed as pressure (g) which induces pain reaction (mean+/−SEM). The cut-off value corresponds to the maximum pressure that the apparatus allows (750 g). Data were analyzed by a two-way analysis of variance (ANOVA) to compare time-course scores. These analyses were followed by a Tukey test when the F-value was significant. The significance level was p<0.05.
# [2] = system: ipsilateral (inflamed) hindpaw of the FCA-rat model of inflammatory pain; assay: Paw Pressure Test, FCA-rat model of inflammatory pain (Example 1), ipsilateral hindpaw; assay type: in vivo; settings: single i.p. bolus doses ~7-70 mg/kg (estimated doses)
# Method: Single bolus doses of PD-123,319 were administered by the i.p. route to rats with FCA-induced unilateral hindpaw inflammation, a rat model of inflammatory pain. Anti-hyperalgesic (pain-relieving) efficacy was assessed using the Paw Pressure Test, a test which involves the application of noxious pressure to the inflamed hindpaw.
# Following i.pl. […] The ability of single bolus doses of PD-123,319 (˜7-70 mg/kg) or vehicle to alleviate mechanical hyperalgesia in the ipsilateral (inflamed) hindpaw was assessed using the Paw Pressure Test (PPT).
# [3] = system: ipsilateral (inflamed) hindpaw of FCA-rats; assay: Paw Pressure Test (PPT) in FCA-rats (Example 2), anti-hyperalgesia in ipsilateral hindpaw
# [4] = system: ipsilateral hindpaw volume of FCA-rats; assay: Paw volume measurement in FCA-rats (water displacement); assay type: in vivo, rat; settings: 3 h post-dosing, single bolus doses tested
# Method: Paw volume was assessed using displacement of water by the hindpaw to indicate the paw volume. These measurements were undertaken for both the ipsilateral and contralateral hindpaws prior to and 5 days after i.pl. FCA administration and prior to and 3 h post-dosing.
# [5] = system: contralateral (non-inflamed) hindpaw of FCA-rats; assay: Paw Pressure Test (PPT) in FCA-rats (Example 2), antinociception in contralateral hindpaw; settings: 0.5 mg/kg s.c.; did not reach statistical significance (p>0.05)
# [6] = system: FCA-rats; assay: Behavioural observations in FCA-rats; assay type: in vivo, rat; settings: single bolus: EMA500 1-100 mg/kg i.p., EMA600 1-30 mg/kg i.p., morphine 0.5 mg/kg
# Description: The animals were monitored for visible and audible signs of distress throughout the testing period. The visible signs of distress included behavioural changes such as complete immobility, movement with abnormal gait, agitation, aggression, wet dog shakes, excessive grooming, restlessness with constant movement, repeated sudden movements or staring.
# [7] = Solubility of test articles in the dosing vehicle (Example 3); settings: at 10 mg/kg (2 mL/kg, NaCl 0.9%/DMSO 50/50)
smiles,measurement,setting,value
"COc1ccc(Cn2cnc3c2CC(C(=O)O)N(C(=O)C(c2ccccc2)c2ccccc2)C3)cc1C (stereo not drawn) [EMA300, 1-(3-methyl-4-methoxyphenyl)-methyl-5-diphenylacetyl-4,5,6,7-tetrahydro-1H-imidazo[4,5-c]pyridine-6-carboxylic acid]",antihyperalgesic effect,"[1]; 0.1 mg/kg i.p., 15 and 30 minutes after drug injection",+6%
same,antihyperalgesic effect,"[1]; 1 mg/kg i.p., 15 and 30 minutes after drug injection",+22%
same,antihyperalgesic effect,"[1]; 10 mg/kg i.p., 15 and 30 minutes after drug injection",+56%
same,antihyperalgesic effect in model of monoarthritis (overall),[1],dose-dependent antihyperalgesic effect; also recorded: induce antihyperalgesic effects
"Cc1cc(Cn2cnc3c2CC(C(=O)O)N(C(=O)C(c2ccccc2)c2ccccc2)C3)ccc1N(C)C (stereo not drawn) [PD-123,319, 1-(4-Dimethylamino-3-methylphenyl)methyl-5-diphenylacetyl-4,5,6,7-tetrahydro-1H-imidazo[4,5-c]-pyridine-6-carboxylic acid]",relief of mechanical hyperalgesia in the ipsilateral (inflamed) hindpaw,[2],dose-dependent relief of mechanical hyperalgesia
CN1CC[C@]23c4c5ccc(O)c4O[C@H]2[C@@H](O)C=C[C@H]3[C@H]1C5 [morphine],duration of action (anti-hyperalgesic response),[3]; 0.5 mg/kg s.c. single bolus,2 to 3 h
same,time of peak anti-hyperalgesic response,"[3]; 0.5 mg/kg s.c. single bolus, post-dosing",0.5 h
same,reversal of FCA-induced mechanical hyperalgesia,"[3]; 0.5 mg/kg s.c., 0.5 h post-dosing",fully reversed FCA-induced mechanical hyperalgesia
same,"mean (±SEM) PPT at the time of peak effect, ipsilateral hindpaw","[3]; 0.5 mg/kg s.c., 0.5 h post-dosing, pre-dosing 63.7 (±2.5) g",115.0 (±10.6) g
same,antinociceptive effect (vocalization threshold),"[1]; morphine 5 mg/kg i.p., compared to pre-induction values",significant increase in the vocalization threshold
same,effect on ipsilateral hindpaw volume,[4],did not alter ipsilateral hindpaw volumes; also recorded: unaffected
same,antinociceptive effect in the contralateral hindpaw,[5],small antinociceptive effect
same,adverse behavioural effects,[6],did not produce adverse behavioural effects
"COc1ccc2c(c1OCc1ccccc1)CC(C(=O)O)N(C(=O)C(c1ccccc1)c1ccccc1)C2 (single isomer, unassigned; (+)) [EMA400, (+)-2-(Diphenylacetyl)-1,2,3,4 tetrahydro-6-methoxy-5-(phenylmethoxy)-3-isoquinoline carboxylic acid]",antihyperalgesic effect,"[1]; 1 mg/kg i.p., 15 minutes after the injection",+20%
same,antihyperalgesic effect,"[1]; 10 mg/kg i.p., 15 minutes after the injection",+40%
same,antihyperalgesic effect,"[1]; 10 mg/kg i.p., 30 minutes after the injection",significant antihyperalgesic effect
same,antihyperalgesic effect in model of monoarthritis (overall),[1],induce antihyperalgesic effects
same,solubility issues,[7],Solubility issues were observed
